According to patent EP4710919A1, “INJECTION PREPARATION AND PREPARATION METHOD THEREFOR, AND COMPATIBLE MEDICINAL LIQUID AND PREPARATION METHOD THEREFOR” (Ascentawits Pharmaceuticals, Ltd., priority 2023, dated 2024):

What was measured:
Format in all cases: physicochemical
[1] = Stability of Compound A in formulations with different adjuvants at 2-8°C (HPLC content, total impurities, moisture); conditions: stored at 2-8°C for 10 days; all formulation solvent systems
Description: For the aforementioned treated Formulations F1 to F4, their specific formulation information is as follows ("p": the formulation obtained by adding ELP to the formulations in Table 3): • F1p: 300 mg API, 7.5 g ELP, and absolute ethanol added to 30 ml; • F2-1p: 3 g propylene glycol, 300 mg API, 7.5 g ELP, and absolute ethanol added to 30 ml; • F2-2p: 9 g propylene glycol, 300 mg API, 7.5 g ELP, and absolute ethanol added to 30 ml; • F3-1p: 1.5 g glycerin, 300 mg API, 7.5 g ELP, and absolute ethanol added to 30 ml; • F3-2p: 4.5 g glycerin, 300 mg API, 7.5 g ELP, and absolute ethanol added to 30 ml; • F4-1: 3 g DMA, 300 mg API, and absolute ethanol added to 30 ml; • F4-2: 9 g DMA, 300 mg API, and absolute ethanol added to 30 ml; • F4-3: 15 g DMA, 300 mg API, and absolute ethanol added to 30 ml.
The stability of Compound A in the aforementioned formulations was investigated. At the predetermined time points (Day 0, Day 5, Day 10), 1 ml samples were taken for HPLC analysis to detect the content, total impurities, and moisture, respectively. Table 4: Stability of Compound A in formulations with different adjuvants at 2-8°C

[2] = Solubility of Compound A in single adjuvant solvents at 25°C (supersaturated solution, sampled every 2 hours); conditions: organic solvent or mixture, thermodynamic from solid; for solubility at 0 h / solubility at 2 h / solubility at 4 h / solubility at 6 h: single solvent
Description: In order to increase the concentration of the active pharmaceutical ingredient in the injection, the solubility of the active pharmaceutical ingredient in single adjuvants was investigated to screen for optimal solvents, hydrotropic agents, or solubilizers. The solubility test of Compound A in single solvents was conducted as follows: Each of the single solvents was taken, a certain amount of API (the compound of formula I) was added at 25°C and stirred, and the dissolution of the API in the solvent system was observed. If the dissolution was complete, additional API was added continuously until a supersaturated solution was obtained. Samples were taken every 2 hours, filtered and assayed for content. Table 2: Solubility data of Compound A in single solvents at 25°C

[3] = Chiral stability study of the 1.00 mg/ml compatibility drug solution of Compound A (room temperature, HPLC contents of A-P1 and A-P2); conditions: in the compatibility solution of the injection formulation
Description: (§1) Compound A is a racemic mixture containing one chiral center. Its two isomers, named A-P1 and A-P2, can be obtained by resolving Compound A. During the formulation and compatibility studies, interconversion between the chiral isomers may affect the drug safety. Therefore, it is necessary to study the chiral stability of Compound A in both its injection formulation and the compatibility drug solution of the injection formulation.
(§2) • (a) The concentrated injection formulation of Compound A (2 ml: 20 mg) was prepared according to the aforementioned confirmed Formulation F19 and its preparation method. • (b) The compatibility drug solution with a concentration of 1.00 mg/ml was prepared according to the process for preparing a compatibility solution as described in Section 5.1.
For the 1.00 mg/ml compatibility drug solution (ready-to-use injection), the solution was stored at room temperature (25°C ± 2°C) under indoor ambient lighting. Samples were taken at different time points (0 h, 2 h, 4 h, 8 h and 24 h) and the contents of A-P1 and A-P2 were determined using the aforementioned HPLC method to evaluate chiral stability. Table 27: Chiral stability study of the concentrated Compound A injection

[4] = Chiral stability study of the concentrated Compound A injection (-20±5°C, HPLC contents of A-P1 and A-P2); conditions: in its injection formulation
Description: as §1, §2
For the injection formulation of Compound A (concentrated injection), the formulation was stored under light-protected, sealed conditions at -20±5°C. Samples were taken at different time points (0 month, 1 month, 3 months), and the contents of A-P1 and A-P2 were determined using the aforementioned HPLC method for stability evaluation.

[5] = Solubility of Compound A in single solvents (water, acidic and alkaline aqueous solutions, isopropanol, methanol) at 25°C
Description: The solubility of Compound A in single solvents (water, acidic and alkaline aqueous solutions, isopropanol, and methanol) was investigated. Table 1: Solubility investigation of Compound A at 25°C

[6] = Solubility of Compound A in formulations with different adjuvants, observations before and after treatment
Text: Compound A and Compound AST-3424 are structurally similar (both are nitrobenzyl derivatives and linked to a DNA alkylating agent with an aziridine structure that can effectively kill tumor cells). In addition, by releasing the DNA alkylating agent with an aziridine structure in tumor tissues or cells that overexpress the AKR1C3 enzyme, both compounds enable targeted recognition and treatment of any of the tumor tissues or cells that overexpress […] 1C3 (AKR1C3), and achieve the purpose of killing the tumor tissues or cells. Therefore, based on the same formulation development strategy, the inventors designed and selected an injection formulation similar to that of Compound AST-3424 (the optimal formulation of AST-3424: 10 mg/ml Compound AST-3424 + 75% ethanol + 25% propylene glycol) for use in the formulation study of Compound A.
In addition to the solvents used in the reference formulation of Compound AST-3424, absolute ethanol was employed as a commonly used and relatively safe non-aqueous solvent adjuvant for injection formulations. During the development of the product formulation, it was considered to add N,N-dimethylacetamide (DMA) or polyoxyethylene (35) castor oil (ELP) to improve solubility and facilitate the manufacturing convenience. […]

[7] = Compatibility and stability study of ready-to-use intravenous injections (0.02 and 1.00 mg/ml in pH-adjusted 5% glucose injection); conditions: after filtration, room temperature, indoor ambient lighting
Description: In order to provide compatibility information for the injection of the compound of formula I (Compound A, API) and the compatibility solutions, it is necessary to investigate the short-term stability of the injection in 5% glucose injection, a commonly used intravenous diluent. Considering that the API is instable in acidic environments, the pH of the 5% glucose injection is first adjusted to 7.4 using a sodium bicarbonate solution.
1.0 ml of 5% sodium bicarbonate injection was added to 250 ml of 5% glucose injection to adjust the pH, and mixed homogeneously. At this point, the pH of the mixed solution was approximately 8.0.
The Compound A injection (2 ml: 20 mg) was prepared with the pH-adjusted 5% glucose injection into a compatibility solution with a concentration of 0.02 mg/ml, and a compatibility solution with a concentration of 1.00 mg/ml.
0.501 ml of Compound A injection (2 ml: 20 mg) was added to a mixing bag containing 250 ml of 5% glucose injection (whose pH had been pre-adjusted using 5% sodium bicarbonate injection). The mixing bag was repeatedly inverted to ensure homogeneous mixing of the mixed solution before storage and sampling.
27.8 ml of Compound A injection (2 ml: 20 mg) was added to a mixing bag containing 250 ml of 5% glucose injection (whose pH had been pre-adjusted using 5% sodium bicarbonate injection). […]

[8] = Polyethylene glycol 400 (PEG 400)
[9] = Polyoxyethylene (35) castor oil (ELP)

With `O=[N+]([O-])c1ccc(C(OP(=O)(N2CC2)N2CC2)C(F)(F)F)cc1Oc1ccc(-c2ccc(F)cc2)c(F)c1` (racemic) [Compound A] the “stability with respect to content, total impurities, and moisture” value [1] was “remained relatively stable”, the Solubility ([2]; N,N-dimethylacetamide (single solvent), in N,N-dimethylacetamide) was over 200 mg/mL and the Solubility ([2]; polyoxyethylene (35) castor oil (single solvent), in polyoxyethylene (35) castor oil) was about 20 mg/mL. The solubility at 0 h ([2]; Ethanol) was 8.95 mg/mL, the solubility at 2 h ([2]; Ethanol) was 9.09 mg/mL and the solubility at 4 h ([2]; Ethanol) was 9.43 mg/mL. It also gave a solubility at 6 h ([2]; Ethanol) of 9.28 mg/mL, a solubility at 0 h ([2]; N,N-Dimethylacetamide (DMA)) of 248 mg/mL and a solubility at 2 h ([2]; N,N-Dimethylacetamide (DMA)) of 251 mg/mL. The solubility at 4 h ([2]; N,N-Dimethylacetamide (DMA)) was 251 mg/mL, the solubility at 6 h ([2]; N,N-Dimethylacetamide (DMA)) was 251 mg/mL and the solubility at 0 h [2, 8] was 12.2 mg/mL. For the same compound, the solubility at 2 h [2, 8] was 11.2 mg/mL, the solubility at 4 h [2, 8] was 15.3 mg/mL and the solubility at 6 h [2, 8] was 16 mg/mL. For the same compound, the solubility at 0 h [2, 9] was 18.6 mg/mL, the solubility at 2 h [2, 9] was 20.7 mg/mL and the solubility at 4 h [2, 9] was 20.7 mg/mL. For the same compound, the solubility at 6 h [2, 9] was 21.3 mg/mL, the chiral stability [3] was “chirally stable” and the chiral stability [4] was “chirally stable”. The Solubility ([5]; 0.1 mol/L HCl solution, 25°C) was “Practically insoluble”, the Solubility ([5]; 0.1 mol/L NaOH solution, 25°C) was “Practically insoluble” and the Solubility ([5]; Isopropanol, 25°C) was “Practically insoluble”. For the same compound, the Solubility ([5]; Methanol, 25°C) was “Sparingly soluble”, the Solubility ([5]; Water, 25°C) was “Practically insoluble” and the Solubility ([5]; in water, and acidic and alkaline aqueous solutions) was “extremely low solubility”. For the same compound, the “dissolution of Compound A” value ([6]; formulation prepared based on the formulation design of Compound AST-3424 (ethanol:propylene glycol 3:1, 300 mg in 30 ml)) was “cannot be completely dissolved”, the Solubility ([6]; mixed solvent of ethanol and propylene glycol) was “poorly soluble” and the “changes in traits, color and clarity of solution, osmotic pressure, pH value, content of Compound A, and related substances” value ([7]; 0.02 mg/ml compatibility solutions, within 8 hours) was “no significant changes”. For the same compound, the “changes in traits, color and clarity of solution, osmotic pressure, pH value, and content of Compound A” value ([7]; 1.00 mg/ml compatibility solutions, within 6 hours) was “no significant changes”.
